≈ marks a conversion by molar mass, not a printed value. Like-named read-outs stand apart in the source and are kept apart here. Where a SMILES comes first, the peptide text is derived from it. Where no end group is shown, it is not given here. [ ]: non-standard residue; d: D form. The star is where a group is joined. Trp(2-Pmc) = Cc1c(C)c(S(=O)(=O)c2[nH]c3ccccc3c2C[C@H](N)C(=O)O)c(C)c2c1OC(C)(C)CC2; Bip = N[C@@H](Cc1ccc(-c2ccccc2)cc1)C(=O)O; OBn = c1ccc(CO*)cc1
How the values were obtained:
[1] = test system: Escherichia coli ATCC 25922
[2] = test system: Staphylococcus aureus ATCC 25923

Compound | MIC E. coli ([1]; ATCC 25922) | MIC E. coli ([1]; Table 8, second column) | MIC S. aureus ([2]; ATCC 25923) | MIC S. aureus ([2]; Table 8, second column) | MIC E. coli ([1]; Table 8, first column) | MIC S. aureus ([2]; Table 8, first column) | Minimum inhibitory concentration E. coli ([1]; ATCC 25922) | Minimum inhibitory concentration S. aureus ([2]; ATCC 25923)
C[C@H](N)C(=O)N[C@@H](C)C(=O)N[C@@H](Cc1ccc(-c2ccccc2)cc1)C(=O)N[C@@H](Cc1ccc(-c2ccccc2)cc1)C(=O)N[C@@H](CCCNC(=N)N)C(=O)N[C@@H](CCCNC(=N)N)C(N)=O [AABBRR-NH2] (H-AA[Bip][Bip]RR-NH2; N-terminus assumed) | 20 to 35 µg/mL | 21.8-38.1 μM/ml | 5 µg/mL (≈ 5.45 µM) | 5.4 μM/ml |  |  |  | 
C[C@H](N)C(=O)N[C@@H](C)C(=O)N[C@@H](Cc1c[nH]c2ccccc12)C(=O)N[C@@H](Cc1ccc(-c2ccccc2)cc1)C(=O)N[C@@H](CCCNC(=N)N)C(=O)N[C@@H](CCCNC(=N)N)C(N)=O [AAWBRR-NH2] (H-AAW[Bip]RR-NH2; N-terminus assumed) | 150 µg/mL (≈ 170 µM) | 170.2 μM/ml | 20 to 35 µg/mL | 22.7-39.7 μM/ml |  |  |  | 
Cc1c(C)c(S(=O)(=O)c2[nH]c3ccccc3c2C[C@H](NC(=O)[C@H](C)NC(=O)[C@H](C)N)C(=O)N[C@@H](CCCNC(=N)N)C(=O)N[C@@H](Cc2ccc(-c3ccccc3)cc2)C(=O)N[C@@H](CCCNC(=N)N)C(N)=O)c(C)c2c1OC(C)(C)CC2 [AAWRBR-NH2 Pmc+] (H-AA[Trp(2-Pmc)]R[Bip]R-NH2; N-terminus assumed) |  | 13.1 μM/ml |  | 2.2 μM/ml |  |  |  | 
Cc1c(C)c(S(=O)(=O)c2[nH]c3ccccc3c2C[C@H](NC(=O)[C@H](C)N)C(=O)N[C@@H](CCCNC(=N)N)C(=O)N[C@@H](Cc2ccc(-c3ccccc3)cc2)C(=O)N[C@@H](CCCNC(=N)N)C(=O)N[C@@H](C)C(N)=O)c(C)c2c1OC(C)(C)CC2 [AWRBRA-NH2 Pmc+] (H-A[Trp(2-Pmc)]R[Bip]RA-NH2; N-terminus assumed) |  | 8.7 μM/ml |  | 2.2 μM/ml |  |  |  | 
C[C@H](NC(=O)[C@H](C)NC(=O)[C@H](Cc1ccc(-c2ccccc2)cc1)NC(=O)[C@@H](N)Cc1ccc(-c2ccccc2)cc1)C(=O)N[C@@H](CCCNC(=N)N)C(=O)N[C@@H](CCCNC(=N)N)C(N)=O [BBAARR-NH2] (H-[Bip][Bip]AARR-NH2; N-terminus assumed) | >150 µg/mL | 163.4 μM/ml | 5 µg/mL (≈ 5.45 µM) | 5.4 μM/ml |  |  |  | 
N=C(N)NCCC[C@H](NC(=O)[C@H](CCCNC(=N)N)NC(=O)[C@H](Cc1ccc(-c2ccccc2)cc1)NC(=O)[C@@H](N)Cc1ccc(-c2ccccc2)cc1)C(N)=O [BBRR-NH2] (H-[Bip][Bip]RR-NH2; N-terminus assumed) | 50 µg/mL (≈ 64.4 µM) | 64.4 μM/ml | 5 µg/mL (≈ 6.44 µM) | 6.4 μM/ml |  |  |  | 
C[C@H](NC(=O)[C@H](C)NC(=O)[C@H](CCCNC(=N)N)NC(=O)[C@H](CCCNC(=N)N)NC(=O)[C@H](Cc1ccc(-c2ccccc2)cc1)NC(=O)[C@@H](N)Cc1ccc(-c2ccccc2)cc1)C(N)=O [BBRRAA-NH2] (H-[Bip][Bip]RRAA-NH2; N-terminus assumed) | 75 µg/mL (≈ 81.7 µM) | 81.7 μM/ml | 5 µg/mL (≈ 5.45 µM) | 5.4 μM/ml |  |  |  | 
NCCCC[C@H](N)CN[C@@H](Cc1c[nH]c2ccccc12)C(=O)OCc1ccccc1 [Kψ(CH2NH)WOBzl] |  |  |  |  |  |  | >300 µg/mL | 300 µg/mL (≈ 734 µM)
C[C@H](NC(=O)[C@H](C)NC(=O)[C@H](CCCNC(=N)N)NC(=O)[C@@H](N)CCCNC(=N)N)C(=O)N[C@@H](Cc1c[nH]c2ccccc12)C(=O)N[C@@H](Cc1c[nH]c2ccccc12)C(N)=O [RRAAWW-NH2] (H-RRAAWW-NH2; N-terminus assumed) | >200 µg/mL | 237.0 μM/ml | >200 µg/mL | 237.0 μM/ml |  |  |  | 
Cc1c(C)c(S(=O)(=O)c2[nH]c3ccccc3c2C[C@H](N)C(=O)N[C@@H](Cc2ccc(-c3ccccc3)cc2)C(=O)N[C@@H](CCCNC(=N)N)C(=O)N[C@@H](CCCNC(=N)N)C(N)=O)c(C)c2c1OC(C)(C)CC2 [WBRR-NH2 Pmc+] (H-[Trp(2-Pmc)][Bip]RR-NH2; N-terminus assumed) | >100 µg/mL | 99.5 μM/ml | 5 to 10 µg/mL | 5.0-9.9 μM/ml |  |  |  | 
C[C@H](NC(=O)[C@H](C)NC(=O)[C@H](CCCNC(=N)N)NC(=O)[C@@H](N)Cc1c[nH]c2ccccc12)C(=O)N[C@@H](Cc1ccc(-c2ccccc2)cc1)C(=O)N[C@@H](CCCNC(=N)N)C(N)=O [WRAABR-NH2] (H-WRAA[Bip]R-NH2; N-terminus assumed) | 150 µg/mL (≈ 170 µM) | 170.2 μM/ml | 35 µg/mL (≈ 39.7 µM) | 39.7 μM/ml |  |  |  | 
Cc1c(C)c(S(=O)(=O)c2[nH]c3ccccc3c2C[C@H](N)C(=O)N[C@@H](CCCNC(=N)N)C(=O)N[C@@H](Cc2ccc(-c3ccccc3)cc2)C(=O)N[C@@H](CCCNC(=N)N)C(=O)N[C@@H](C)C(=O)N[C@@H](C)C(N)=O)c(C)c2c1OC(C)(C)CC2 [WRBRAA-NH2 Pmc+] (H-[Trp(2-Pmc)]R[Bip]RAA-NH2; N-terminus assumed) |  | 13.1 μM/ml |  | 4.4 μM/ml |  |  |  | 
C[C@H](NC(=O)[C@H](C)NC(=O)[C@H](Cc1c[nH]c2ccccc12)NC(=O)[C@@H](N)Cc1c[nH]c2ccccc12)C(=O)N[C@@H](CCCNC(=N)N)C(=O)N[C@@H](CCCNC(=N)N)C(N)=O [WWAARR-NH2] (H-WWAARR-NH2; N-terminus assumed) | >200 µg/mL | 237.0 μM/ml | >200 µg/mL | 237.0 μM/ml |  |  |  | 
NCCCC[C@@H](N)C(=O)N[C@@H](Cc1c[nH]c2ccccc12)C(=O)OCc1ccccc1 [kW-OBzl] (H-[dK]-Trp-OBn) | >300 µg/mL |  | 100 µg/mL (≈ 237 µM) |  |  |  | >300 µg/mL | 100 µg/mL (≈ 237 µM)

Further lines, with some results ahead:

MIC E. coli ([1]; ATCC 25922) | MIC E. coli ([1]; Table 8, second column) | MIC S. aureus ([2]; ATCC 25923) | MIC S. aureus ([2]; Table 8, second column) | MIC E. coli ([1]; Table 8, first column) | MIC S. aureus ([2]; Table 8, first column) | Compound | Minimum inhibitory concentration E. coli ([1]; ATCC 25922) | Minimum inhibitory concentration S. aureus ([2]; ATCC 25923)
150 to 300 µg/mL |  | 35 µg/mL (≈ 39.7 µM) | 39.7 μM/ml |  |  | C[C@H](N)C(=O)N[C@@H](C)C(=O)N[C@@H](Cc1c[nH]c2ccccc12)C(=O)N[C@@H](CCCNC(=N)N)C(=O)N[C@@H](Cc1ccc(-c2ccccc2)cc1)C(=O)N[C@@H](CCCNC(=N)N)C(N)=O [AAWRBR-NH2] (H-AAWR[Bip]R-NH2; N-terminus assumed) |  | 
>200 µg/mL | 237.0 μM/ml | >200 µg/mL | 237.0 μM/ml |  |  | C[C@H](N)C(=O)N[C@@H](C)C(=O)N[C@@H](Cc1c[nH]c2ccccc12)C(=O)N[C@@H](Cc1c[nH]c2ccccc12)C(=O)N[C@@H](CCCNC(=N)N)C(=O)N[C@@H](CCCNC(=N)N)C(N)=O [AAWWRR-NH2] (H-AAWWRR-NH2; N-terminus assumed) |  | 
35 µg/mL (≈ 39.7 µM) | 39.7 μM/ml | 35 µg/mL (≈ 39.7 µM) | 39.7 μM/ml |  |  | C[C@H](N)C(=O)N[C@@H](Cc1c[nH]c2ccccc12)C(=O)N[C@@H](CCCNC(=N)N)C(=O)N[C@@H](Cc1ccc(-c2ccccc2)cc1)C(=O)N[C@@H](CCCNC(=N)N)C(=O)N[C@@H](C)C(N)=O [AWRBRA-NH2] (H-AWR[Bip]RA-NH2; N-terminus assumed) |  | 
150 to 300 µg/mL |  | 10 µg/mL (≈ 11.4 µM) | 11.3 μM/ml |  |  | C[C@H](NC(=O)[C@H](C)NC(=O)[C@H](CCCNC(=N)N)NC(=O)[C@@H](N)CCCNC(=N)N)C(=O)N[C@@H](Cc1c[nH]c2ccccc12)C(=O)N[C@@H](Cc1ccc(-c2ccccc2)cc1)C(N)=O [RRAAWB-NH2] (H-RRAAW[Bip]-NH2; N-terminus assumed) |  | 
>300 µg/mL | 340.5 μM/ml | 35 µg/mL (≈ 39.7 µM) | 39.7 μM/ml |  |  | C[C@H](NC(=O)[C@H](C)NC(=O)[C@H](Cc1ccc(-c2ccccc2)cc1)NC(=O)[C@@H](N)Cc1c[nH]c2ccccc12)C(=O)N[C@@H](CCCNC(=N)N)C(=O)N[C@@H](CCCNC(=N)N)C(N)=O [WBAARR-NH2] (H-W[Bip]AARR-NH2; N-terminus assumed) |  | 
>100 µg/mL | 135.3 μM/ml | 20 µg/mL (≈ 27.1 µM) | 27.1 μM/ml |  |  | N=C(N)NCCC[C@H](NC(=O)[C@H](CCCNC(=N)N)NC(=O)[C@H](Cc1ccc(-c2ccccc2)cc1)NC(=O)[C@@H](N)Cc1c[nH]c2ccccc12)C(N)=O [WBRR-NH2] (H-W[Bip]RR-NH2; N-terminus assumed) |  | 
>300 µg/mL | 340.5 μM/ml | 75 µg/mL (≈ 85.1 µM) | 85.1 μM/ml |  |  | C[C@H](NC(=O)[C@H](C)NC(=O)[C@H](CCCNC(=N)N)NC(=O)[C@H](CCCNC(=N)N)NC(=O)[C@H](Cc1ccc(-c2ccccc2)cc1)NC(=O)[C@@H](N)Cc1c[nH]c2ccccc12)C(N)=O [WBRRAA-NH2] (H-W[Bip]RRAA-NH2; N-terminus assumed) |  | 
>200 µg/mL | 237.0 μM/ml | >200 µg/mL | 237.0 μM/ml |  |  | C[C@H](NC(=O)[C@H](C)NC(=O)[C@H](CCCNC(=N)N)NC(=O)[C@@H](N)Cc1c[nH]c2ccccc12)C(=O)N[C@@H](Cc1c[nH]c2ccccc12)C(=O)N[C@@H](CCCNC(=N)N)C(N)=O [WRAAWR-NH2] (H-WRAAWR-NH2; N-terminus assumed) |  | 
150 µg/mL (≈ 170 µM) | 170.2 μM/ml | 35 µg/mL (≈ 39.7 µM) | 39.7 μM/ml |  |  | C[C@H](NC(=O)[C@H](C)NC(=O)[C@H](CCCNC(=N)N)NC(=O)[C@H](Cc1ccc(-c2ccccc2)cc1)NC(=O)[C@H](CCCNC(=N)N)NC(=O)[C@@H](N)Cc1c[nH]c2ccccc12)C(N)=O [WRBRAA-NH2] (H-WR[Bip]RAA-NH2; N-terminus assumed) |  | 
 |  | 5 µg/mL (≈ 7.85 µM) |  |  |  | N=C(N)NCCC[C@H](NC(=O)[C@@H](N)Cc1c[nH]c2ccccc12)C(=O)N[C@@H](Cc1c[nH]c2ccccc12)C(=O)OCc1ccccc1 [WRW-OBzl] (H-Trp-Arg-Trp-OBn) |  | 
 | 18.0 μM/ml |  | 2.3 μM/ml | 20 µg/mL | 2.5 µg/mL | AAWWRR-NH2 Pmc+: hexapeptide amide having the Pmc group (also: Pmc group, position not given here) |  | 

— patent publication US9115169B2, “Method of treating tumors” (Lytix Biopharma AS, priority 2000, dated 2015)
